Measured values reported in US20230365592A1 (Agios Pharmaceuticals, Inc., priority 2022, published 2023).

Biological target: T1, human PAH with the R408W mutation (Homo sapiens, UniProt P00439, R408W)
T1 construct: expressed in transfected cells
T1 sequence (P00439 1-452 R408W): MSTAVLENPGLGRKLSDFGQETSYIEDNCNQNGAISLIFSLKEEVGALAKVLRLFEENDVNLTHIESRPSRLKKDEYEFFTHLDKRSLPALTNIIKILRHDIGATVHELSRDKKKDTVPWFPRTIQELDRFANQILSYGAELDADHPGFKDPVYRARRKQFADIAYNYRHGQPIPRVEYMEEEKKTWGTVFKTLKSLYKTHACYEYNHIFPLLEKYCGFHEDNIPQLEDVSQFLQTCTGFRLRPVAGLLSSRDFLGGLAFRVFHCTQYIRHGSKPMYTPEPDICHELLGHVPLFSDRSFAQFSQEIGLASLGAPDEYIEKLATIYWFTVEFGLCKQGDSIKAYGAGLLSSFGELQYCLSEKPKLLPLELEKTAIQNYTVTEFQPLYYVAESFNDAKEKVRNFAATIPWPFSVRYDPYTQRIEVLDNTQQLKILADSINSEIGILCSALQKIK
Assay: Cell Based Phenylalanine Flux Assay;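 note: after compound treatment, cells received sepiapterin plus isotope-labelled Phenylalanine for 4 hours, then labelled Tyrosine in the medium was quantified, 10-point 2-fold dilution series run in duplicate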
Conditions: A375 cells expressing human R408W PAH; 24 hrs compound incubation; 13C-Tyrosine by LC-MS; average where tested multiple times; read-out: AC50

Compound | AC50 [nM]
COc1cccn2nc([C@@H]3c4nc[nH]c4CCN3C(=O)c3nnc(-c4ccccn4)o3)cc12 [Example 779, (S)-(4-(4-methoxypyrazolo[1,5-a]pyridin-2-yl)-6,7-dihydro-1H-imidazo[4,5-c]pyridin-5(4H)-yl)(5-(pyridin-2-yl)-1,3,4-oxadiazol-2-yl)methanone] | 500 to 1000
Cn1nc(C(F)F)nc1C(=O)N1CCc2[nH]cnc2[C@H]1c1cc2c(Cl)cccn2n1 [Example 780, (S)-(4-(4-chloropyrazolo[1,5-a]pyridin-2-yl)-6,7-dihydro-1H-imidazo[4,5-c]pyridin-5(4H)-yl)(3-(difluoromethyl)-1-methyl-1H-1,2,4-triazol-5-yl)methanone] | < 500
O=C(c1ccnn1C(F)F)N1CCc2[nH]cnc2[C@H]1c1cc2c(Cl)cccn2n1 [Example 782, (S)-(4-(4-chloropyrazolo[1,5-a]pyridin-2-yl)-6,7-dihydro-1H-imidazo[4,5-c]pyridin-5(4H)-yl)(1-(difluoromethyl)-1H-pyrazol-5-yl)methanone] | < 500
Cc1c([C@@H]2c3nc[nH]c3CCN2C(=O)c2ocnc2C(F)F)nn2ccccc12 [Example 784, (S)-(4-(difluoromethyl)oxazol-5-yl)(4-(3-methylpyrazolo[1,5-a]pyridin-2-yl)-6,7-dihydro-1H-imidazo[4,5-c]pyridin-5(4H)-yl)methanone] | < 500
Cc1c([C@H]2c3nc[nH]c3CCN2C(=O)c2ocnc2C(F)F)nn2ccccc12 [Example 785, (R)-(4-(difluoromethyl)oxazol-5-yl)(4-(3-methylpyrazolo[1,5-a]pyridin-2-yl)-6,7-dihydro-1H-imidazo[4,5-c]pyridin-5(4H)-yl)methanone] | 1000 to 5000
Cc1c([C@@H]2c3nc[nH]c3CCN2C(=O)c2oc(C(C)(C)O)nc2C(F)F)nn2ccccc12 [Example 786, (S)-(4-(difluoromethyl)-2-(2-hydroxypropan-2-yl)oxazol-5-yl)(4-(3-methylpyrazolo[1,5-a]pyridin-2-yl)-6,7-dihydro-1H-imidazo[4,5-c]pyridin-5(4H)-yl)methanone] | < 500
COc1ccc(-c2nnc(C(=O)N3CCc4[nH]cnc4[C@@H]3c3cc4c(F)cccn4n3)o2)nc1 [Example 789, (R)-(4-(4-fluoropyrazolo[1,5-a]pyridin-2-yl)-6,7-dihydro-1H-imidazo[4,5-c]pyridin-5(4H)-yl)(5-(5-methoxypyridin-2-yl)-1,3,4-oxadiazol-2-yl)methanone] | 1000 to 5000
O=C(c1nnc(-c2ncccc2F)o1)N1CCc2[nH]cnc2[C@@H]1c1cc2c(F)cccn2n1 [Example 790, (R)-(4-(4-fluoropyrazolo[1,5-a]pyridin-2-yl)-6,7-dihydro-1H-imidazo[4,5-c]pyridin-5(4H)-yl)(5-(3-fluoropyridin-2-yl)-1,3,4-oxadiazol-2-yl)methanone] | > 5000
Cc1cccc2cc([C@@H]3c4nc[nH]c4CCN3C(=O)c3ocnc3C(F)F)nn12 [Example 792, (S)-(4-(difluoromethyl)oxazol-5-yl)(4-(7-methylpyrazolo[1,5-a]pyridin-2-yl)-6,7-dihydro-1H-imidazo[4,5-c]pyridin-5(4H)-yl)methanone] | < 500
Cc1cccc2cc([C@@H]3c4nc[nH]c4CCN3C(=O)c3oc(C(C)(C)O)nc3C(F)F)nn12 [Example 794, (S)-(4-(difluoromethyl)-2-(2-hydroxypropan-2-yl)oxazol-5-yl)(4-(7-methylpyrazolo[1,5-a]pyridin-2-yl)-6,7-dihydro-1H-imidazo[4,5-c]pyridin-5(4H)-yl)methanone] | < 500
Cc1cccc2cc([C@H]3c4nc[nH]c4CCN3C(=O)c3oc(C(C)(C)O)nc3C(F)F)nn12 [Example 795, (R)-(4-(difluoromethyl)-2-(2-hydroxypropan-2-yl)oxazol-5-yl)(4-(7-methylpyrazolo[1,5-a]pyridin-2-yl)-6,7-dihydro-1H-imidazo[4,5-c]pyridin-5(4H)-yl)methanone] | 1000 to 5000
O=C(c1nnc(-c2cnn(C(F)F)c2)o1)N1CCc2[nH]cnc2[C@H]1c1cc2c(F)cccn2n1 [Example 796, (S)-(5-(1-(difluoromethyl)-1H-pyrazol-4-yl)-1,3,4-oxadiazol-2-yl)(4-(4-fluoropyrazolo[1,5-a]pyridin-2-yl)-6,7-dihydro-1H-imidazo[4,5-c]pyridin-5(4H)-yl)methanone] | < 500
Cc1ccc2cc([C@H]3c4nc[nH]c4CCN3C(=O)c3oc(C(C)(C)O)nc3C(F)F)nn2c1 [Example 805] | 1000 to 5000
CC(C)(O)c1nc(C(F)F)c(C(=O)N2CCc3[nH]cnc3[C@H]2c2cc3c(C(F)(F)F)cccn3n2)o1 [Example 810, (S)-(4-(difluoromethyl)-2-(2-hydroxypropan-2-yl)oxazol-5-yl)(4-(4-(trifluoromethyl)pyrazolo[1,5-a]pyridin-2-yl)-6,7-dihydro-1H-imidazo[4,5-c]pyridin-5(4H)-yl)methanone] | < 500
CC(C)(O)c1nc(C(F)F)c(C(=O)N2CCc3[nH]cnc3[C@@H]2c2cc3c(C(F)(F)F)cccn3n2)o1 [Example 811, (R)-(4-(difluoromethyl)-2-(2-hydroxypropan-2-yl)oxazol-5-yl)(4-(4-(trifluoromethyl)pyrazolo[1,5-a]pyridin-2-yl)-6,7-dihydro-1H-imidazo[4,5-c]pyridin-5(4H)-yl)methanone] | 1000 to 5000

The next lines start with the values.

AC50 [nM] | Compound
500 to 1000 | Cc1cccc2cc([C@H]3c4nc[nH]c4CCN3C(=O)c3ocnc3C(F)F)nn12 [Example 793, (R)-(4-(difluoromethyl)oxazol-5-yl)(4-(7-methylpyrazolo[1,5-a]pyridin-2-yl)-6,7-dihydro-1H-imidazo[4,5-c]pyridin-5(4H)-yl)methanone]
< 500 | Cc1cccc2cc([C@@H]3c4nc[nH]c4CCN3C(=O)c3nnc(-c4ccccn4)o3)nn12 [Example 798, (S)-(4-(7-methylpyrazolo[1,5-a]pyridin-2-yl)-6,7-dihydro-1H-imidazo[4,5-c]pyridin-5(4H)-yl)(5-(pyridin-2-yl)-1,3,4-oxadiazol-2-yl)methanone]
> 5000 | Cc1cccc2cc([C@H]3c4nc[nH]c4CCN3C(=O)c3nnc(-c4cnn(C)c4)o3)nn12 [Example 801, (R)-(5-(1-methyl-1H-pyrazol-4-yl)-1,3,4-oxadiazol-2-yl)(4-(7-methylpyrazolo[1,5-a]pyridin-2-yl)-6,7-dihydro-1H-imidazo[4,5-c]pyridin-5(4H)-yl)methanone]
> 5000 | Cc1cccc2cc([C@H]3c4nc[nH]c4CCN3C(=O)c3nnc(-c4ccn(C)n4)o3)nn12 [Example 803, (R)-(5-(1-methyl-1H-pyrazol-3-yl)-1,3,4-oxadiazol-2-yl)(4-(7-methylpyrazolo[1,5-a]pyridin-2-yl)-6,7-dihydro-1H-imidazo[4,5-c]pyridin-5(4H)-yl)methanone]
> 5000 | Cc1cccn2nc([C@H]3c4nc[nH]c4CCN3C(=O)c3nnc(-c4cn(C)cn4)o3)cc12 [Example 807, (R)-(5-(1-methyl-1H-imidazol-4-yl)-1,3,4-oxadiazol-2-yl)(4-(4-methylpyrazolo[1,5-a]pyridin-2-yl)-6,7-dihydro-1H-imidazo[4,5-c]pyridin-5(4H)-yl)methanone]
> 5000 | Cn1cnc(-c2nnc(C(=O)N3CCc4[nH]cnc4[C@@H]3c3cc4c(F)cccn4n3)o2)c1 [Example 808, (R)-(4-(4-fluoropyrazolo[1,5-a]pyridin-2-yl)-6,7-dihydro-1H-imidazo[4,5-c]pyridin-5(4H)-yl)(5-(1-methyl-1H-imidazol-4-yl)-1,3,4-oxadiazol-2-yl)methanone]
500 to 1000 | Cn1cnc(-c2nnc(C(=O)N3CCc4[nH]cnc4[C@H]3c3cc4c(F)cccn4n3)o2)c1 [Example 809, (S)-(4-(4-fluoropyrazolo[1,5-a]pyridin-2-yl)-6,7-dihydro-1H-imidazo[4,5-c]pyridin-5(4H)-yl)(5-(1-methyl-1H-imidazol-4-yl)-1,3,4-oxadiazol-2-yl)methanone]
500 to 1000 | Cc1ccc2cc([C@@H]3c4nc[nH]c4CCN3C(=O)c3nnc(-c4ccccn4)o3)nn2c1 [Example 812, (S)-(4-(6-methylpyrazolo[1,5-a]pyridin-2-yl)-6,7-dihydro-1H-imidazo[4,5-c]pyridin-5(4H)-yl)(5-(pyridin-2-yl)-1,3,4-oxadiazol-2-yl)methanone]
> 5000 | Cc1ccc2cc([C@H]3c4nc[nH]c4CCN3C(=O)c3nnc(-c4ccccn4)o3)nn2c1 [Example 813, (R)-(4-(6-methylpyrazolo[1,5-a]pyridin-2-yl)-6,7-dihydro-1H-imidazo[4,5-c]pyridin-5(4H)-yl)(5-(pyridin-2-yl)-1,3,4-oxadiazol-2-yl)methanone]
< 500 | Cc1ccc2cc([C@@H]3c4nc[nH]c4CCN3C(=O)c3nnc(-c4ccn(C)n4)o3)nn2c1 [Example 814, (S)-(5-(1-methyl-1H-pyrazol-3-yl)-1,3,4-oxadiazol-2-yl)(4-(6-methylpyrazolo[1,5-a]pyridin-2-yl)-6,7-dihydro-1H-imidazo[4,5-c]pyridin-5(4H)-yl)methanone]
> 5000 | Cc1ccc2cc([C@H]3c4nc[nH]c4CCN3C(=O)c3nnc(-c4ccn(C)n4)o3)nn2c1 [Example 815, (R)-(5-(1-methyl-1H-pyrazol-3-yl)-1,3,4-oxadiazol-2-yl)(4-(6-methylpyrazolo[1,5-a]pyridin-2-yl)-6,7-dihydro-1H-imidazo[4,5-c]pyridin-5(4H)-yl)methanone]
